# Measured values as given in ChEMBL document CHEMBL5257105, “Identification and structure-activity relationships for a series of N, N-disubstituted 2-aminobenzothiazoles as potent inhibitors of S. aureus” (Bioorg Med Chem Lett, 2023).
# Calls of active or inactive are those of the source. The rule behind the calls is not given here.
# Experiments:
# [1] = test system: Staphylococcus aureus; experiment: Antibacterial activity against Staphylococcus aureus; type: functional
# [2] = test system: A549; experiment: (§1) Cytotoxicity against human A549 cells; type: toxicity, cell-based; details: a549
# [3] = as §1; type: toxicity, cell-based; details: A549 cells
# [4] = test system: Pseudomonas aeruginosa; experiment: Antibacterial activity against Pseudomonas aeruginosa PAO1; type: functional
# [5] = test system: Escherichia coli; experiment: Antibacterial activity against wild type Escherichia coli harbouring pore; type: functional
# [6] = test system: Escherichia coli; experiment: Antibacterial activity against […] Escherichia coli harbouring TolC-deficient mutant; type: functional
# [7] = test system: Escherichia coli; experiment: Antibacterial activity against […] Escherichia coli harbouring TolC-deficient mutant with pore; type: functional
# [8] = test system: Pseudomonas aeruginosa; experiment: Antibacterial activity against Pseudomonas aeruginosa PAO1 harbouring delta6 mutant; type: functional
# [9] = test system: Pseudomonas aeruginosa; experiment: Antibacterial activity against Pseudomonas aeruginosa PAO1 harbouring delta6 mutant with pore; type: functional
# [10] = test system: Escherichia coli; experiment: Antibacterial activity against Escherichia coli; type: functional
# [11] = test system: Pseudomonas aeruginosa; experiment: Antibacterial activity against Pseudomonas aeruginosa PAO1 harbouring pore; type: functional
# [12] = Selectivity ratio of CC50 for human A549 cells to MIC for Staphylococcus aureus; type: toxicity
# [13] = test system: Staphylococcus aureus; experiment: Bacteriostatic activity against Staphylococcus aureus ATCC 25923 at 4 times MIC by time kill assay; type: functional, organism-based
# [14] = test system: Staphylococcus aureus; experiment: Bactericidal activity against Staphylococcus aureus ATCC 25923 at 16 times MIC measured after 7 to 24 hrs by time kill assay; type: functional, organism-based; details: time 7-24 hrs
# [15] = test system: Staphylococcus aureus; experiment: Bacteriostatic activity against Staphylococcus aureus ATCC 25923 at MIC by time kill assay; type: functional, organism-based
# [16] = test system: Staphylococcus aureus; experiment: Antibacterial activity against Staphylococcus aureus ATCC 25923; type: functional
# [17] = test system: Staphylococcus aureus; experiment: Antibacterial activity against Staphylococcus aureus ATCC 215; type: functional
# [18] = test system: Staphylococcus aureus; experiment: Antibacterial activity against Staphylococcus aureus ATCC 216; type: functional
# [19] = test system: Staphylococcus aureus; experiment: Antibacterial activity against Staphylococcus aureus ATCC 217; type: functional
# [20] = test system: Staphylococcus aureus; experiment: Antibacterial activity against Staphylococcus aureus ATCC 219; type: functional
# [21] = test system: Staphylococcus aureus; experiment: Antibacterial activity against Staphylococcus aureus ATCC 223; type: functional
# [22] = test system: Staphylococcus aureus; experiment: Antibacterial activity against Staphylococcus aureus ATCC 701; type: functional
# [23] = test system: Staphylococcus aureus; experiment: Antibacterial activity against Staphylococcus aureus ATCC 711; type: functional
# [24] = test system: Staphylococcus aureus; experiment: Antibacterial activity against Staphylococcus aureus ATCC 716; type: functional
# [25] = Staphylococcus aureus, read-out: MIC
# [26] = Staphylococcus aureus, read-out: MIC80
smiles,measurement,setting,value
Cc1cc(Cl)cc2sc(N(CCCn3ccnc3)C(=O)C3CCC3)nc12,MIC,[1]; [25],2.6 µM
same,CC50,[2],44.6 µM
Cc1cc(C(=O)N(CCCn2ccnc2)c2nc3c(C)cc(Cl)cc3s2)oc1C,MIC,[1]; [25],3.9 µM
same,CC50,[2],52.1 µM
O=C(c1ccco1)N(CCCn1ccnc1)c1nc2c(F)cc(F)cc2s1,MIC,[1]; [25],16.5 µM
same,CC50,[3],93.7 µM
CO[C@@H]1[C@@H](OC(N)=O)[C@@H](O)[C@H](Oc2ccc3c(O)c(NC(=O)c4ccc(O)c(CC=C(C)C)c4)c(=O)oc3c2C)OC1(C)C [NOVOBIOCIN],MIC,[4],> 512 µM
same,MIC,[5],64 µM
same,MIC,[6],1 µM
same,MIC,[7],0.125 µM
same,MIC,[8],256 µM
same,MIC,[9],4 µM
Cc1cc(Cl)cc2sc(N(CCCn3ccnc3)C(=O)c3ccc[nH]3)nc12,MIC,[1]; [25],1.7 µM
same,CC50,[2],> 100 µM
same,MIC,[4],> 100 µM
same,MIC,[10],> 200 µM
same,MIC,[5],> 200 µM
same,MIC,[6],1.56 µM
same,MIC,[7],0.78 µM
same,MIC,[11],> 100 µM
same,MIC,[8],> 100 µM
Cc1cc(Cl)cc2sc(N(CCCn3ccnc3)C(=O)c3ccccn3)nc12,MIC,[1]; [25],7.4 µM
same,CC50,[2],44.5 µM
Cc1cc(Cl)cc2sc(N(CCCn3ccnc3)C(=O)C3CCCC3)nc12,MIC,[1]; [25],1.7 µM
same,CC50,[2],59.7 µM
same,selectivity ratio,[12],34
NCc1cccc2sc(N(CCCn3ccnc3)C(=O)c3ccco3)nc12,MIC,[1]; [25],66.7 µM
same,MIC,[4],> 200 µM
same,MIC,[10],> 200 µM
same,MIC,[5],> 200 µM
same,MIC,[6],100 µM
same,MIC,[7],100 µM
same,MIC,[11],> 200 µM
same,MIC,[8],100 µM
same,MIC,[9],100 µM
Cc1c(Cl)ccc2sc(N(CCCn3ccnc3)C(=O)c3ccco3)nc12,MIC,[1]; [25],2.6 µM
same,CC50,[3],27.4 µM
Cc1cc(Cl)cc2sc(N(CCCn3ccnc3)C(=O)CN)nc12,MIC,[1]; [25],100 µM
Cc1cc(Cl)cc2sc(N(CCCn3ccnc3)C(=O)C3(C)CC3)nc12,MIC,[1]; [25],3.3 µM
same,CC50,[2],54.6 µM
Cc1ccc(C(=O)N(CCCn2ccnc2)c2nc3c(C)cc(Cl)cc3s2)o1,MIC,[1]; [25],2.6 µM
same,CC50,[2],35.2 µM
Cc1cc(Cl)cc2sc(N(CCCn3ccnc3)C(=O)C3CC3)nc12,Activity,[13],Active
same,Activity,[14],Active
same,Activity,[15],Active
same,MIC,[1]; [25],3.9 µM
same,MIC,[16],3.9 µM
same,MIC,[4],> 200 µM
same,MIC,[17],14.8 µM
same,MIC,[18],4.4 µM
same,MIC,[19],14.8 µM
same,MIC,[20],2.9 µM
same,MIC,[21],4.4 µM
same,MIC,[22],4.4 µM
same,MIC,[23],4.4 µM
same,MIC,[24],4.4 µM
same,MIC,[10],> 200 µM
same,MIC,[5],200 µM
same,MIC,[6],< 0.2 µM
same,MIC,[7],< 0.2 µM
same,MIC,[11],> 200 µM
same,MIC,[8],50 µM
same,MIC,[9],1.56 µM
Cc1ccc(C(=O)N(CCCn2ccnc2)c2nc3c(C)cc(Cl)cc3s2)s1,MIC,[1]; [25],16.5 µM
same,CC50,[2],34.1 µM
O=C(c1ccco1)N(CCCn1ccnc1)c1nc2ccc(Cl)nc2s1,MIC,[1]; [25],> 100 µM
Cc1cc(Cl)cc2sc(N(CC3CCCNC3)C(=O)c3ccco3)nc12 (configuration not stated),MIC80,[1],19.8 µM
same,MIC80,[1]; [26],29.6 µM
same,MIC,[4],> 200 µM
same,MIC,[5],100 µM
same,MIC,[6],100 µM
same,MIC,[7],50 µM
same,MIC,[11],> 200 µM
same,MIC,[8],> 200 µM
same,MIC,[9],25 µM
Cc1cc(Cl)cc2sc(N(CC3CCC(N)CC3)C(=O)c3ccco3)nc12 (configuration not stated),MIC80,[1],29.6 µM
same,MIC80,[1]; [26],19.8 µM
same,MIC,[4],> 200 µM
same,MIC,[10],> 200 µM
same,MIC,[5],100 µM
same,MIC,[6],50 µM
same,MIC,[7],25 µM
same,MIC,[11],> 200 µM
same,MIC,[9],12.5 µM
O=C(c1ccco1)N(CCCn1ccnc1)c1nc2ccccc2s1,MIC,[1]; [25],44.4 µM
same,CC50,[3],142 µM
Cc1cc(Cl)cc2sc(N(CCCn3ccnc3)C(=O)C(C)C)nc12,MIC,[1],2.6 µM
same,MIC,[1]; [25],3.9 µM
same,CC50,[3],46.4 µM
same,MIC,[4],> 200 µM
same,MIC,[10],> 100 µM
same,MIC,[5],> 100 µM
same,MIC,[6],3.2 µM
same,MIC,[7],3.2 µM
same,MIC,[11],> 200 µM
same,MIC,[8],50 µM
same,MIC,[9],0.78 µM
